One block for each compound: values may come before it.
How the values were obtained:
Type in all cases: in vivo, Lateolabrax maculatus
[1] = test system: spotted seabass; experiment: Immunological indicators (ACP/AKP, IgM, LZM) in serum; conditions: for AKP activity: on exposure to anesthetic
Description: (§1) In accordance with the principles and guiding regulations established by the Animal Protection and Utilization Committee of Shanghai Ocean University (SHOU-DW-2022-059), 200 mg/L MS-222 was used to anesthetize fish. Venous-arterial blood samples were obtained from the caudal vein using a 1 mL syringe with 10% EDTA as an anticoagulant and then preserved in anticoagulation tubes. In addition, another portion of the blood was collected without anticoagulant, then kept at 4° C. for a duration of 12 hours for stationary. The coagulated blood was centrifuged at 4000×g for 20 min at 4° C. The serum was extracted and placed in the refrigerator at −40° C. for testing.
(§2) Acid phosphatase (ACP), glucose (GLU) and lactic acid (LD) kits (Nanjing Jiancheng Bioengineering Institute, Nanjing, China) were used to measure ACP, GLU and LD levels.
Lysozyme (LZM) activity was determined by the method of De Souza et al. Serum immunoglobulin M (IgM) concentration was measured using a fish ELISA kit (Nanjing Jiancheng Bioengineering Institute, Nanjing, China).

[2] = test system: spotted seabass; experiment: Sedation, anesthesia induction and resuscitation time of spotted seabass in anesthetic bath; set-up: key to Stage IV (deep anesthesia) time / Resuscitation time / Stage I (light sedation) time / Stage II (deep sedation) time / Stage III (light anesthesia) time: —: No anesthetic effect; conditions: for Optimal anesthetic concentration: criterion: induction in around 3 min and recovery within 5 min; for Concentration showing deep sedation / Concentration showing light anesthesia effect (Stage III) / Concentration showing light sedation effect (Stage I) / Minimum concentration required to achieve profound anesthesia (Stage IV): in vivo
Description: • 1. Healthy spotted seabass with uniform sizes and uniform respiration rates were selected and acclimated for 24 h. During the acclimatization period, the water temperature was 22±1° C., the salinity was 16%, the dissolved oxygen was 6 mg/L, pH was 7.5, and the fish-water ratio was 1:50. The metabolic wastes of the spotted seabass were discharged during acclimatization period. • 2. The emulsified Cinnamomum camphora essential oils were added to the aquariums respectively. The water temperature was controlled at 22±1° C. […] The spotted seabass were transferred to aquariums (5 fish per aquarium) with different concentrations of the Cinnamomum camphora essential oil, MS-222 and linalool anesthetics, and anesthetic concentrations, sedation concentrations and duration of anesthesia were recorded for the spotted seabass. • 4. The fish were extracted once deep anesthesia was achieved. Recovery was defined as the restoration of fish to their typical swimming behavior; the resuscitation time of the spotted seabass were recorded. • 5. The optimal concentration range was obtained, and oxidative stress and tissue injury were measured. [table] One-way analysis of variance (ANOVA) was used to evaluate the data (anesthetic induction and recovery time) using SPSS 26.0 software (SPSS Inc., Chicago, IL, USA). The significant variation was determined using Duncan's multiple range test (P<0.05). Graphs were created using Origin software.

[3] = test system: spotted seabass; experiment: Blood biochemical analysis (RBC, HCT, HGB)
Description: as §1
Red blood cell count (RBC), haematocrit (HCT), and hemoglobin (HGB) in blood samples were measured in a Myriad Veterinary Automatic Blood Cell Analyser (BC-2800vet, Shenzhen, China).

[4] = test system: spotted seabass; experiment: Oxidative stress indicators (SOD, CAT, GSH-Px) in blood; conditions: for SOD, CAT and GSH-Px activities: after anesthesia
Description: as §1
Superoxide Dismutase (SOD), Catalase (CAT) and Glutathione Peroxidase (GSH-Px) kits (Nanjing Jiancheng Bioengineering Institute, Nanjing, China) were used to determine SOD, CAT and GSH-Px activities in blood.

[5] = test system: spotted seabass gill tissue; experiment: Gill tissue histopathology by light microscope after anesthesia
Description: • 1. Healthy spotted seabass with uniform sizes and uniform respiration rates were selected and acclimated for 24 h. During the acclimatization period, the water temperature was 22±1° C., the salinity was 16%, the dissolved oxygen was 6 mg/L, pH was 7.5, and the fish-water ratio was 1:50. The metabolic wastes of the spotted seabass were discharged during acclimatization period. • 2. The emulsified Cinnamomum camphora essential oils were added to the aquariums respectively. The water temperature was controlled at 22±1° C. The concentrations of the emulsified Cinnamomum camphora essential oil were 10, 20, 30, 50, 100, 150, 200 mg/L, respectively, and the same concentrations of MS-222 anesthesia solution and linalool solution were prepared at the same time. • 3. The spotted seabass were transferred to aquariums (5 fish per aquarium) with different concentrations of the Cinnamomum camphora essential oil, MS-222 and linalool anesthetics, and anesthetic concentrations, sedation concentrations and duration of anesthesia were recorded for the spotted seabass. • 4. The fish were extracted once deep anesthesia was achieved. Recovery was defined as the restoration of fish to their typical swimming behavior; the resuscitation time of the spotted seabass were recorded. • 5. The optimal concentration range was obtained, and oxidative stress and tissue injury were measured. […]

[6] = test system: spotted seabass; experiment: Energy metabolism indexes (glucose, lactic acid); conditions: P<0.05
Description: as §1, §2

[7] = after anesthesia, change from initial
[8] = 100 mg/L in water, listed as linalool
[9] = after deep anesthesia, comparison between anesthetic groups, p<0.05
[10] = after 24 h of recovery, vs initial
[11] = after 24 h of recovery, vs MS-222 and Cinnamomum camphora essential oil
[12] = after anesthesia, comparison between anesthetic groups
[13] = after 24 h of recovery, vs initial values, p<0.05

IgM concentration ([1]; after anesthesia): decreased
LZM activity [1, 7]: increased
LZM activity ([1]; after anesthesia, comparison between anesthetic groups, P<0.05): higher
ACP activity ([1]; after anesthesia, vs MS-222 and Cinnamomum camphora essential oil, P<0.05): higher
AKP activity [1]: increased
Percentage of hematocrit [3, 9]: lower
GSH-Px activity [4, 10]: still higher than the initial levels
SOD activity [4, 10]: still higher than the initial levels
SOD, CAT and GSH-Px activities [4]: increasing trend
Gill tissue histopathological changes [5]: swollen lamellar epithelium
Glucose concentration [6, 11]: higher
Lactic acid concentration [6, 11]: lower
Glucose concentration [6, 12]: Greater
Lactic acid level ([6]; after anesthesia, vs MS-222 and Cinnamomum camphora essential oil): greater
Compound: C=CC(C)(O)CCC=C(C)C (stereo not drawn) [Linalool, 1,6-Octadien-3-ol,3,7-dimethyl]
Resuscitation time ([2]; 5 mg/L in water): —
Stage I (light sedation) time ([2]; 5 mg/L in water): —
Stage II (deep sedation) time ([2]; 5 mg/L in water): —
Stage III (light anesthesia) time ([2]; 5 mg/L in water): —
Stage IV (deep anesthesia) time ([2]; 5 mg/L in water): —
Resuscitation time ([2]; 10 mg/L in water): —
Stage I (light sedation) time ([2]; 10 mg/L in water): 88.67 ± 3.21 s
Stage II (deep sedation) time ([2]; 10 mg/L in water): —
Stage III (light anesthesia) time ([2]; 10 mg/L in water): —
Stage IV (deep anesthesia) time ([2]; 10 mg/L in water): —
Resuscitation time ([2]; 20 mg/L in water): —
Stage I (light sedation) time ([2]; 20 mg/L in water): 70.00 ± 3.00 s
Stage II (deep sedation) time ([2]; 20 mg/L in water): 97.00 ± 4.58 s
Stage III (light anesthesia) time ([2]; 20 mg/L in water): —
Stage IV (deep anesthesia) time ([2]; 20 mg/L in water): —
Resuscitation time ([2]; 30 mg/L in water): —
Stage I (light sedation) time ([2]; 30 mg/L in water): 60.00 ± 3.00 s
Stage II (deep sedation) time ([2]; 30 mg/L in water): 84.67 ± 3.51 s
Stage III (light anesthesia) time ([2]; 30 mg/L in water): 103.33 ± 3.51 s
Stage IV (deep anesthesia) time ([2]; 30 mg/L in water): —
Resuscitation time ([2]; 50 mg/L in water): 235.00 ± 2.00 s
Stage I (light sedation) time ([2]; 50 mg/L in water): 42.67 ± 3.51 s
Stage III (light anesthesia) time ([2]; 50 mg/L in water): 115.00 ± 4.00 s
Stage IV (deep anesthesia) time ([2]; 50 mg/L in water): 323.33 ± 2.52 s
Resuscitation time ([2]; 100 mg/L in water): 255.33 ± 2.08 s
Stage I (light sedation) time ([2]; 100 mg/L in water): 31.67 ± 1.15 s
Stage III (light anesthesia) time ([2]; 100 mg/L in water): 103.67 ± 2.52 s
Stage IV (deep anesthesia) time ([2]; 100 mg/L in water): 213.00 ± 1.73 s
Resuscitation time [2, 8]: 344.00 s
Stage IV (deep anesthesia) time [2, 8]: 155.33 s
Resuscitation time ([2]; 150 mg/L in water): 270.00 ± 3.00 s
Stage I (light sedation) time ([2]; 150 mg/L in water): 22.33 ± 2.52 s
Stage II (deep sedation) time ([2]; 150 mg/L in water): 44.00 ± 2.65 s
Stage III (light anesthesia) time ([2]; 150 mg/L in water): 91.67 ± 1.53 s
Stage IV (deep anesthesia) time ([2]; 150 mg/L in water): 155.33 ± 3.51 s
Resuscitation time ([2]; 200 mg/L in water): 310.00 ± 3.00 s
Stage I (light sedation) time ([2]; 200 mg/L in water): 16.00 ± 1.00 s
Stage II (deep sedation) time ([2]; 200 mg/L in water): 37.00 ± 1.73 s
Stage III (light anesthesia) time ([2]; 200 mg/L in water): 86.00 ± 2.65 s
Stage IV (deep anesthesia) time ([2]; 200 mg/L in water): 141.00 ± 5.29 s
Optimal anesthetic concentration [2]: 100 mg/L
Concentration showing deep sedation [2]: 20 mg/L
Concentration showing light anesthesia effect (Stage III) [2]: 30 mg/L
Concentration showing light sedation effect (Stage I) [2]: 10 mg/L
Minimum concentration required to achieve profound anesthesia (Stage IV) [2]: 50 mg/L

IgM concentration ([1]; after anesthesia): decreased
LZM activity [1, 7]: decreased
AKP activity [1]: increased
Percentage of hematocrit [3, 13]: lower
Red blood cell count (RBC) [3, 13]: higher
Percentage of hematocrit [3, 9]: higher
Hemoglobin concentration ([3]; in vivo): higher
Red blood cell count (RBC) ([3]; in vivo): higher
CAT activity [4, 10]: recovered to the initial values
SOD activity [4, 10]: recovered to the initial values
SOD, CAT and GSH-Px activities [4]: increasing trend
Glucose concentration [6, 12]: Greater
Compound: CCOC(=O)c1cccc(N)c1.CS(=O)(=O)O [MS-222, tricaine methanesulfonate]
Resuscitation time ([2]; 5 mg/L in water): —
Stage I (light sedation) time ([2]; 5 mg/L in water): —
Stage II (deep sedation) time ([2]; 5 mg/L in water): —
Stage III (light anesthesia) time ([2]; 5 mg/L in water): —
Stage IV (deep anesthesia) time ([2]; 5 mg/L in water): —
Resuscitation time ([2]; 10 mg/L in water): —
Stage I (light sedation) time ([2]; 10 mg/L in water): 90.67 ± 2.08 s
Stage II (deep sedation) time ([2]; 10 mg/L in water): —
Stage III (light anesthesia) time ([2]; 10 mg/L in water): —
Stage IV (deep anesthesia) time ([2]; 10 mg/L in water): —
Resuscitation time ([2]; 20 mg/L in water): —
Stage I (light sedation) time ([2]; 20 mg/L in water): 73.67 ± 5.86 s
Stage II (deep sedation) time ([2]; 20 mg/L in water): 111.67 ± 2.08 s
Stage III (light anesthesia) time ([2]; 20 mg/L in water): —
Stage IV (deep anesthesia) time ([2]; 20 mg/L in water): —
Resuscitation time ([2]; 30 mg/L in water): —
Stage I (light sedation) time ([2]; 30 mg/L in water): 59.00 ± 3.00 s
Stage II (deep sedation) time ([2]; 30 mg/L in water): 102.33 ± 2.52 s
Stage III (light anesthesia) time ([2]; 30 mg/L in water): 122.67 ± 2.52 s
Stage IV (deep anesthesia) time ([2]; 30 mg/L in water): —
Resuscitation time ([2]; 50 mg/L in water): 217.00 ± 2.00 s
Stage I (light sedation) time ([2]; 50 mg/L in water): 39.67 ± 2.52 s
Stage II (deep sedation) time ([2]; 50 mg/L in water): 64.00 ± 3.61 s
Stage III (light anesthesia) time ([2]; 50 mg/L in water): 83.00 ± 3.00 s
Stage IV (deep anesthesia) time ([2]; 50 mg/L in water): 185.00 ± 4.36 s
Resuscitation time ([2]; 100 mg/L in water): 240.00 ± 2.00 s
Stage I (light sedation) time ([2]; 100 mg/L in water): 30.00 ± 3.00 s
Stage II (deep sedation) time ([2]; 100 mg/L in water): 41.00 ± 4.58 s
Stage III (light anesthesia) time ([2]; 100 mg/L in water): 70.67 ± 4.04 s
Stage IV (deep anesthesia) time ([2]; 100 mg/L in water): 174.00 ± 4.58 s
Resuscitation time ([2]; 150 mg/L in water): 290.33 ± 3.06 s
Stage I (light sedation) time ([2]; 150 mg/L in water): 20.67 ± 2.52 s
Stage II (deep sedation) time ([2]; 150 mg/L in water): 35.00 ± 2.00 s
Stage III (light anesthesia) time ([2]; 150 mg/L in water): 63.00 ± 3.61 s
Stage IV (deep anesthesia) time ([2]; 150 mg/L in water): 147.67 ± 2.52 s
Resuscitation time ([2]; 200 mg/L in water): 349.33 ± 3.06 s
Stage I (light sedation) time ([2]; 200 mg/L in water): 19.67 ± 2.52 s
Stage II (deep sedation) time ([2]; 200 mg/L in water): 29.67 ± 2.52 s
Stage III (light anesthesia) time ([2]; 200 mg/L in water): 55.33 ± 2.08 s
Stage IV (deep anesthesia) time ([2]; 200 mg/L in water): 140.33 ± 2.08 s
Optimal anesthetic concentration [2]: 100 mg/L
Concentration showing deep sedation [2]: 20 mg/L
Concentration showing light anesthesia effect (Stage III) [2]: 30 mg/L
Concentration showing light sedation effect (Stage I) [2]: 10 mg/L
Minimum concentration required to achieve profound anesthesia (Stage IV) [2]: 50 mg/L
Gill tissue histopathological changes [5]: chloride cells underwent significant proliferation

From patent US20240316136A1, “ANESTHETIC METHOD OF SPOTTED SEABASS WITH PLANT ESSENTIAL OILS” (Shanghai Ocean University, priority 2024, published 2024)
